Reference: the supplement of paper PMC10307832

Assays:
Test in all cases: relative viability (nuclei count vs DMSO), 5 days (fraction); higher = more cells survive
Tipifarnib = compound: Cn1cncc1[C@@](N)(c1ccc(Cl)cc1)c1ccc2c(c1)c(-c1cccc(Cl)c1)cc(=O)n2C [Tipifarnib]
How it was run: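 Lung cancer cell lines in 1536-well plates were kept overnight at 37 °C, then pinned with five library-drug doses (not always all listed) spaced by √10 on vehicle-anchored plates. After 5 days without medium change, cells were fixed, permeabilised and Hoechst-stained in one step, imaged at 4×, and nuclei were counted with MetaXpress. Viability is treated-well nuclei divided by vehicle-well nuclei, taken as the median over plates. Plates passed only with control CV below 25% and at least one doubling.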

Tipifarnib + Vorinostat = compound: Cn1cncc1[C@@](N)(c1ccc(Cl)cc1)c1ccc2c(c1)c(-c1cccc(Cl)c1)cc(=O)n2C [Tipifarnib] + O=C(CCCCCCC(=O)Nc1ccccc1)NO [Vorinostat] (partner 1 µM)
How it was run: (§1)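 One day after seeding in 1536-well plates, lung cancer cell lines were dosed by pin tool. Dosing was either single-drug or a fixed anchor-drug dose plus five library-drug doses (not always all listed) in √10 steps. After 5 days, nuclei were stained in one fix-and-stain step and counted on 4× images, and relative viability is the nuclei count of treated wells over that of vehicle wells, given as the median of duplicate plates.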

Tipifarnib + Palbociclib = compound: Cn1cncc1[C@@](N)(c1ccc(Cl)cc1)c1ccc2c(c1)c(-c1cccc(Cl)c1)cc(=O)n2C [Tipifarnib] + CC(=O)c1c(C)c2cnc(Nc3ccc(N4CCNCC4)cn3)nc2n(C2CCCC2)c1=O [Palbociclib] (partner 0.5 µM)
How it was run: as §1

Tipifarnib + Trametinib = compound: Cn1cncc1[C@@](N)(c1ccc(Cl)cc1)c1ccc2c(c1)c(-c1cccc(Cl)c1)cc(=O)n2C [Tipifarnib] + CC(=O)Nc1cccc(-n2c(=O)n(C3CC3)c(=O)c3c(Nc4ccc(I)cc4F)n(C)c(=O)c(C)c32)c1 [Trametinib] (partner 0.02 µM)
How it was run: as §1

Tipifarnib + Tozasertib = compound: Cn1cncc1[C@@](N)(c1ccc(Cl)cc1)c1ccc2c(c1)c(-c1cccc(Cl)c1)cc(=O)n2C [Tipifarnib] + Cc1cc(Nc2cc(N3CCN(C)CC3)nc(Sc3ccc(NC(=O)C4CC4)cc3)n2)n[nH]1 [Tozasertib] (partner 0.1 µM)
How it was run: as §1

Tipifarnib + AZD7762 = compound: Cn1cncc1[C@@](N)(c1ccc(Cl)cc1)c1ccc2c(c1)c(-c1cccc(Cl)c1)cc(=O)n2C [Tipifarnib] + NC(=O)Nc1cc(-c2cccc(F)c2)sc1C(=O)N[C@H]1CCCNC1 [AZD7762] (partner 0.2 µM)
How it was run: as §1

Tipifarnib + Luminespib = compound: Cn1cncc1[C@@](N)(c1ccc(Cl)cc1)c1ccc2c(c1)c(-c1cccc(Cl)c1)cc(=O)n2C [Tipifarnib] + CCNC(=O)c1noc(-c2cc(C(C)C)c(O)cc2O)c1-c1ccc(CN2CCOCC2)cc1 [Luminespib] (partner 0.01 µM)
How it was run: as §1

Tipifarnib + OSI-027 = compound: Cn1cncc1[C@@](N)(c1ccc(Cl)cc1)c1ccc2c(c1)c(-c1cccc(Cl)c1)cc(=O)n2C [Tipifarnib] + COc1cccc2cc(-c3nc([C@H]4CC[C@H](C(=O)O)CC4)n4ncnc(N)c34)[nH]c12 [OSI-027] (partner 0.5 µM)
How it was run: as §1

Tipifarnib + Olaparib = compound: Cn1cncc1[C@@](N)(c1ccc(Cl)cc1)c1ccc2c(c1)c(-c1cccc(Cl)c1)cc(=O)n2C [Tipifarnib] + O=C(c1cc(Cc2n[nH]c(=O)c3ccccc23)ccc1F)N1CCN(C(=O)C2CC2)CC1 [Olaparib] (partner 8 µM)
How it was run: as §1

Tipifarnib + Pemetrexed = compound: Cn1cncc1[C@@](N)(c1ccc(Cl)cc1)c1ccc2c(c1)c(-c1cccc(Cl)c1)cc(=O)n2C [Tipifarnib] + Nc1nc2[nH]cc(CCc3ccc(C(=O)N[C@@H](CCC(=O)O)C(=O)O)cc3)c2c(=O)[nH]1 [Pemetrexed] (partner 0.2 µM)
How it was run: as §1

Tipifarnib + Foretinib = compound: Cn1cncc1[C@@](N)(c1ccc(Cl)cc1)c1ccc2c(c1)c(-c1cccc(Cl)c1)cc(=O)n2C [Tipifarnib] + COc1cc2c(Oc3ccc(NC(=O)C4(C(=O)Nc5ccc(F)cc5)CC4)cc3F)ccnc2cc1OCCCN1CCOCC1 [Foretinib] (partner 0.25 µM)
How it was run: as §1

Tipifarnib + Phenformin = compound: Cn1cncc1[C@@](N)(c1ccc(Cl)cc1)c1ccc2c(c1)c(-c1cccc(Cl)c1)cc(=O)n2C [Tipifarnib] + N=C(N)NC(=N)NCCc1ccccc1 [Phenformin] (partner 250 µM)
How it was run: as §1

Tipifarnib + Decitabine = compound: Cn1cncc1[C@@](N)(c1ccc(Cl)cc1)c1ccc2c(c1)c(-c1cccc(Cl)c1)cc(=O)n2C [Tipifarnib] + Nc1ncn([C@H]2C[C@H](O)[C@@H](CO)O2)c(=O)n1 [Decitabine] (partner 2 µM)
How it was run: as §1

Tipifarnib + Dasatinib = compound: Cn1cncc1[C@@](N)(c1ccc(Cl)cc1)c1ccc2c(c1)c(-c1cccc(Cl)c1)cc(=O)n2C [Tipifarnib] + Cc1nc(Nc2ncc(C(=O)Nc3c(C)cccc3Cl)s2)cc(N2CCN(CCO)CC2)n1 [Dasatinib] (partner 0.075 µM)
How it was run: as §1

Cell Line: NCI-H2342
- relative viability (Tipifarnib; 0.01 µM): 1.06
- relative viability (Tipifarnib; 0.03162 µM): 0.984
- relative viability (Tipifarnib; 0.1 µM): 0.749
- relative viability (Tipifarnib; 0.3162 µM): 0.807
- relative viability (Tipifarnib; 1 µM): 0.571
- relative viability (Tipifarnib + Vorinostat; first compound 0.01 µM): 0.847
- relative viability (Tipifarnib + Vorinostat; first compound 0.03162 µM): 0.746
- relative viability (Tipifarnib + Vorinostat; first compound 0.1 µM): 0.597
- relative viability (Tipifarnib + Vorinostat; first compound 0.3162 µM): 0.73
- relative viability (Tipifarnib + Vorinostat; first compound 1 µM): 0.516
- relative viability (Tipifarnib + Palbociclib; first compound 0.01 µM): 0.535
- relative viability (Tipifarnib + Palbociclib; first compound 0.03162 µM): 0.493
- relative viability (Tipifarnib + Palbociclib; first compound 0.1 µM): 0.555
- relative viability (Tipifarnib + Palbociclib; first compound 0.3162 µM): 0.499
- relative viability (Tipifarnib + Palbociclib; first compound 1 µM): 0.488
- relative viability (Tipifarnib + Trametinib; first compound 0.01 µM): 0.778
- relative viability (Tipifarnib + Trametinib; first compound 0.03162 µM): 0.968
- relative viability (Tipifarnib + Trametinib; first compound 0.1 µM): 0.803
- relative viability (Tipifarnib + Trametinib; first compound 0.3162 µM): 0.547
- relative viability (Tipifarnib + Trametinib; first compound 1 µM): 0.65
- relative viability (Tipifarnib + Tozasertib; first compound 0.01 µM): 0.472
- relative viability (Tipifarnib + Tozasertib; first compound 0.03162 µM): 0.476
- relative viability (Tipifarnib + Tozasertib; first compound 0.1 µM): 0.43
- relative viability (Tipifarnib + Tozasertib; first compound 0.3162 µM): 0.371
- relative viability (Tipifarnib + Tozasertib; first compound 1 µM): 0.383
- relative viability (Tipifarnib + AZD7762; first compound 0.01 µM): 0.509
- relative viability (Tipifarnib + AZD7762; first compound 0.03162 µM): 0.506
- relative viability (Tipifarnib + AZD7762; first compound 0.1 µM): 0.36
- relative viability (Tipifarnib + AZD7762; first compound 0.3162 µM): 0.449
- relative viability (Tipifarnib + AZD7762; first compound 1 µM): 0.39
- relative viability (Tipifarnib + Luminespib; first compound 0.01 µM): 0.689
- relative viability (Tipifarnib + Luminespib; first compound 0.03162 µM): 0.669
- relative viability (Tipifarnib + Luminespib; first compound 0.1 µM): 0.635
- relative viability (Tipifarnib + Luminespib; first compound 0.3162 µM): 0.569
- relative viability (Tipifarnib + Luminespib; first compound 1 µM): 0.51
- relative viability (Tipifarnib + OSI-027; first compound 0.01 µM): 0.634
- relative viability (Tipifarnib + OSI-027; first compound 0.03162 µM): 0.542
- relative viability (Tipifarnib + OSI-027; first compound 0.1 µM): 0.631
- relative viability (Tipifarnib + OSI-027; first compound 0.3162 µM): 0.564
- relative viability (Tipifarnib + OSI-027; first compound 1 µM): 0.448
- relative viability (Tipifarnib + Olaparib; first compound 0.01 µM): 0.536
- relative viability (Tipifarnib + Olaparib; first compound 0.03162 µM): 0.463
- relative viability (Tipifarnib + Olaparib; first compound 0.1 µM): 0.425
- relative viability (Tipifarnib + Olaparib; first compound 0.3162 µM): 0.371
- relative viability (Tipifarnib + Olaparib; first compound 1 µM): 0.396
- relative viability (Tipifarnib + Pemetrexed; first compound 0.01 µM): 0.906
- relative viability (Tipifarnib + Pemetrexed; first compound 0.03162 µM): 0.776
- relative viability (Tipifarnib + Pemetrexed; first compound 0.1 µM): 0.71
- relative viability (Tipifarnib + Pemetrexed; first compound 0.3162 µM): 0.64
- relative viability (Tipifarnib + Pemetrexed; first compound 1 µM): 0.509
- relative viability (Tipifarnib + Foretinib; first compound 0.01 µM): 1.06
- relative viability (Tipifarnib + Foretinib; first compound 0.03162 µM): 0.984
- relative viability (Tipifarnib + Foretinib; first compound 0.1 µM): 0.884
- relative viability (Tipifarnib + Foretinib; first compound 0.3162 µM): 0.824
- relative viability (Tipifarnib + Foretinib; first compound 1 µM): 0.771
- relative viability (Tipifarnib + Phenformin; first compound 0.01 µM): 0.676
- relative viability (Tipifarnib + Phenformin; first compound 0.03162 µM): 0.649
- relative viability (Tipifarnib + Phenformin; first compound 0.1 µM): 0.491
- relative viability (Tipifarnib + Phenformin; first compound 0.3162 µM): 0.487
- relative viability (Tipifarnib + Phenformin; first compound 1 µM): 0.399
- relative viability (Tipifarnib + Decitabine; first compound 0.01 µM): 0.778
- relative viability (Tipifarnib + Decitabine; first compound 0.03162 µM): 0.782
- relative viability (Tipifarnib + Decitabine; first compound 0.1 µM): 0.683
- relative viability (Tipifarnib + Decitabine; first compound 0.3162 µM): 0.555
- relative viability (Tipifarnib + Decitabine; first compound 1 µM): 0.557
- relative viability (Tipifarnib + Dasatinib; first compound 0.01 µM): 0.332
- relative viability (Tipifarnib + Dasatinib; first compound 0.03162 µM): 0.337
- relative viability (Tipifarnib + Dasatinib; first compound 0.1 µM): 0.272
- relative viability (Tipifarnib + Dasatinib; first compound 0.3162 µM): 0.331
- relative viability (Tipifarnib + Dasatinib; first compound 1 µM): 0.267

Cell Line: NCI-H1623
- relative viability (Tipifarnib; 0.01 µM): 1.07
- relative viability (Tipifarnib; 0.03162 µM): 1.12
- relative viability (Tipifarnib; 0.1 µM): 0.946
- relative viability (Tipifarnib; 0.3162 µM): 0.886
- relative viability (Tipifarnib; 1 µM): 0.818
- relative viability (Tipifarnib + Tozasertib; first compound 0.01 µM): 0.427
- relative viability (Tipifarnib + Tozasertib; first compound 0.03162 µM): 0.39
- relative viability (Tipifarnib + Tozasertib; first compound 0.1 µM): 0.441
- relative viability (Tipifarnib + Tozasertib; first compound 0.3162 µM): 0.413
- relative viability (Tipifarnib + Tozasertib; first compound 1 µM): 0.368
- relative viability (Tipifarnib + Luminespib; first compound 0.01 µM): 0.647
- relative viability (Tipifarnib + Luminespib; first compound 0.03162 µM): 0.37
- relative viability (Tipifarnib + Luminespib; first compound 0.1 µM): 0.411
- relative viability (Tipifarnib + Luminespib; first compound 0.3162 µM): 0.412
- relative viability (Tipifarnib + Luminespib; first compound 1 µM): 0.325
- relative viability (Tipifarnib + OSI-027; first compound 0.01 µM): 0.4
- relative viability (Tipifarnib + OSI-027; first compound 0.03162 µM): 0.426
- relative viability (Tipifarnib + OSI-027; first compound 0.1 µM): 0.418
- relative viability (Tipifarnib + OSI-027; first compound 0.3162 µM): 0.361
- relative viability (Tipifarnib + OSI-027; first compound 1 µM): 0.319
- relative viability (Tipifarnib + Foretinib; first compound 0.01 µM): 0.904
- relative viability (Tipifarnib + Foretinib; first compound 0.03162 µM): 0.954
- relative viability (Tipifarnib + Foretinib; first compound 0.1 µM): 0.911
- relative viability (Tipifarnib + Foretinib; first compound 0.3162 µM): 0.765
- relative viability (Tipifarnib + Foretinib; first compound 1 µM): 0.587
- relative viability (Tipifarnib + Phenformin; first compound 0.01 µM): 0.603
- relative viability (Tipifarnib + Phenformin; first compound 0.03162 µM): 0.556
- relative viability (Tipifarnib + Phenformin; first compound 0.1 µM): 0.553
- relative viability (Tipifarnib + Phenformin; first compound 0.3162 µM): 0.565
- relative viability (Tipifarnib + Phenformin; first compound 1 µM): 0.374
- relative viability (Tipifarnib + Dasatinib; first compound 0.01 µM): 0.547
- relative viability (Tipifarnib + Dasatinib; first compound 0.03162 µM): 0.493
- relative viability (Tipifarnib + Dasatinib; first compound 0.1 µM): 0.551
- relative viability (Tipifarnib + Dasatinib; first compound 0.3162 µM): 0.583
- relative viability (Tipifarnib + Dasatinib; first compound 1 µM): 0.293
